Data as given in patent publication US12391698B2, “Substituted piperidines and piperazines and methods for the treatment of CNS disorders” (SUVEN LIFE SCIENCES LIMITED, priority 2022, dated 2025).
Where a name gives a salt, the structure may show the parent alone. Read-outs that look alike come from different tables or passages of the source.

Key:
[1] = test system: Male Wistar rats; assay: DOI-induced head twitch response; type: in vivo, rat; conditions: 3.0 mg/kg, s.c., 30 min prior to DOI
Description: On day 1 male Wistar rats (220-250 g) were habituated in a circular cylinder for a period of 15 min. On day 2, the rats were brought to the experimental room 30 min prior to the experiment. All the animals were administered with respective formulations i.e. vehicle or test compound 30 min prior to DOI or vehicle administration. Immediately following DOI or vehicle administration, the animals were kept in the circular cylinder for a period of 10 min to score the head twitches. Compounds which act as 5-HT2A antagonists attenuate DOI-induced head twitches.

[2] = test system: dopamine receptor; assay: Reserpine-induced dihydroxyphenylalanine (DOPA) accumulation assay in rat striatum; type: in vivo; conditions: s.c.
Description: Reserpine (5.0 mg/kg, s.c.) was injected, after which rats were fasted for 18 h before sacrifice. […] Each rat was sacrificed and the striatum was dissected out of the whole brain on ice. Each striatum was weighed and homogenized individually in buffer containing 0.01 N hydrochloric acid and 0.2 mg/ml L-cysteine. Supernatants were subjected for quantification of DOPA using HPLC coupled to electrochemical detector.

[3] = molecular target: T1, recombinant human D2S receptor (Homo sapiens, UniProt P14416); assay: Determination of Kb at D2S receptor, pCRE-Luc reporter gene assay in CHO cells; type: cell-based; conditions: for agonist activity at human recombinant D2S receptor / antagonistic activity at human recombinant D2S receptor: pCRE-Luc reporter gene assay; for Kb: with 0.3 μM Dopamine and 1 μM forskolin, luciferase readout
T1 construct: expressed in transfected cells
T1 sequence (P14416 1-414 isoform P14416-2): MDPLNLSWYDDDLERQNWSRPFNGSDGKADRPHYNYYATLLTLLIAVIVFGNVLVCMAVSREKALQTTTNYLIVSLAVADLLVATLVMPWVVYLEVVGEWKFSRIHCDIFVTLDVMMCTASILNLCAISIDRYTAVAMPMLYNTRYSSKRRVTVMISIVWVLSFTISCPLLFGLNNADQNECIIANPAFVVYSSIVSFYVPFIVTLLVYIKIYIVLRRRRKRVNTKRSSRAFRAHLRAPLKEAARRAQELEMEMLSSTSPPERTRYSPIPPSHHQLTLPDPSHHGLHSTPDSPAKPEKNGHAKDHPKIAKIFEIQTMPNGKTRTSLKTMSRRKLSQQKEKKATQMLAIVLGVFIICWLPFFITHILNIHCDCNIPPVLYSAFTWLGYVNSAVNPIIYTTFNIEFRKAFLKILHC
Description: A stable CHO cell line expressing recombinant human […] receptor and pCRE-Luc reporter system was used for cell-based assay. The assay offers a non-radioactive based approach to determine binding of a compound to GPCRs. In this specific assay, the level of intracellular cAMP which is modulated by activation or inhibition of the receptor is measured. The recombinant cells harbor luciferase reporter gene under the control of cAMP response element.
The above cells were grown in 96 well clear bottom white plates in Hams F12 medium containing 10% fetal bovine serum (FBS). Prior to the addition of compounds or standard agonist, cells were serum starved overnight. Increasing concentrations of test compound were added along with 0.3 μM of Dopamine and 1 μM of forskolin in Opti-MEM medium to the cells. The incubation was continued at 37° C. in CO2 incubator for 4 hours. Medium was removed and cells were washed with phosphate buffered saline. The cells were lysed and luciferase activity was measured in a Luminometer. Luminescence units were plotted against the compound concentrations using GraphPad Prism software. EC50 values of the compounds were defined as the concentration required in reducing the luciferase activity by 50%. The Kb values were calculated by feeding the concentration of agonist used in the assay and its EC50 value in the same software.
References: European Journal of Pharmacology, 2005, 515, 10-19.

[4] = test system: Male Wistar rats; assay: Rotarod test; type: in vivo, rat; conditions: 30 mg/kg p.o., 60 min prior to trial
Description: Male Wistar rats of 200-280 g body weight were used. Rats were weighed and randomized according to their body weights. The animals were habituated on a rotating rod (4 rpm) for 4 times. Animals which successfully stayed on the rotating rod for 60 seconds (out of 4 trials per animal) were selected for further study. […] A single trial was carried out on the next day. Animals that were able to stay on the rotating rod for 60 seconds were chosen for further study. Animals were administered with test compound or vehicle 60 min prior to the trial. The latency to fall from the rotating rod was noted. Rotarod test assesses effects of test compound on motor functions.

[5] = Rodent brain penetration study; type: in vivo; conditions: rat, po, fed male Wistar rats, 3 mg/kg p.o., mean ± S.D, n = 3, read-out: Rat Brain Penetration (Cbrain/Cplasma) at 3 mg/kg, p.o. @ 1 h
Description: Male Wistar rats (260±40 g) were used as experimental animals. Three animals were housed in each cage. Animals were given water and food ad libitum throughout the experiment and maintained on a 12 h light/dark cycle.
Brain penetration was determined in discrete manner in rats. One day prior to dosing, male Wistar rats were acclimatized and randomly grouped according to their body weight. At each time point (0.50, 1 and 2 h), n=3 animals were used.
The test compounds were suitably preformulated and administered orally at (free base equivalent) 3 mg/kg. Blood samples were removed via cardiac puncture under isoflurane anesthesia. The animals were sacrificed to collect brain tissue. Plasma was separated and brain samples were homogenized. Plasma and brain homogenates were stored frozen at −20° C. until analysis. The concentrations of the test compounds in plasma and brain were determined using LC-MS/MS method.
The test compounds were quantified in plasma and brain homogenate by qualified LC-MS/MS method using suitable extraction technique in the calibration range of 1-500 ng/mL. Study samples were analyzed using calibration samples in the batch and quality control samples spread across the batch. Extent of brain-plasma ratio (Cbrain/Cplasma) was calculated.

[6] = molecular target: T2, cloned human 5-HT2A receptor (Homo sapiens, UniProt P28223); assay: Determination of Ki at 5-HT2A receptor (radioligand binding, [3H]-Ketanserine); conditions: CHO-K1 recombinant cells, [3H]-Ketanserine 1.25 nM
T2 construct: expressed in transfected cells; host or cells: CHO-K1
T2 sequence (P28223 whole entry): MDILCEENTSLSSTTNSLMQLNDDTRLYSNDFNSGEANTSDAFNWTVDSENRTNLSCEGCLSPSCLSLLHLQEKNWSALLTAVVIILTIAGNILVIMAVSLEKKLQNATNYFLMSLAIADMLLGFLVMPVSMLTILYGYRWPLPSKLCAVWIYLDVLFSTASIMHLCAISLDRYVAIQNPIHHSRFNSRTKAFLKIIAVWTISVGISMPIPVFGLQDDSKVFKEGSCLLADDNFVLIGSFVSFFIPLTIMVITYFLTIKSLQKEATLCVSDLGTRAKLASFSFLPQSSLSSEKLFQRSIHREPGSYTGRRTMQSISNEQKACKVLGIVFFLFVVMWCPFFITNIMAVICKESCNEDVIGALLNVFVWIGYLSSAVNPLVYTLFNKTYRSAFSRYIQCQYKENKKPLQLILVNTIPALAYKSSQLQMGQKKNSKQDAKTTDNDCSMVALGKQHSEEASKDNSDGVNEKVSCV
In short: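 Membranes from CHO-K1 cells expressing the receptor, incubated 1 h at r.t. with 1.25 nM [3H]-ketanserin in pH 7.4 Tris-HCl 50 mM, 4 mM CaCl2, 0.1% ascorbic acid. Nonspecific binding defined with 0.1 mM 1-naphthylpiperazine; bound label measured after filtration.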

| Structure (SMILES) | Inference, DOI-induced head twitch response [1] | change in reserpine elevated DOPA levels in striatum ([2]; 10 mg/kg, rat, reserpine 5.0 mg/kg) | effect of pre-treatment on apomorphine's decrease of reserpine-induced DOPA accumulation ([2]; pre-treatment before apomorphine 0.1 mg/kg, rat striatum) | agonist activity at human recombinant D2S receptor [3] | antagonistic activity at human recombinant D2S receptor [3] | Kb [3] | Inference, rotarod test (motor incoordination side effects) [4] | Kp at 1 h ([5]; brain/plasma) | Ki ([6]; read-out: Ki h5-HT2A) | Kp at 1 h ([5]; in vivo) | Ki ([6]; Ki h5-HT2A) |
| --- | --- | --- | --- | --- | --- | --- | --- | --- | --- | --- | --- |
| O=C1C[C@@H]2CCCN2C(=O)N1CCCCN1CCN(c2nsc3ccccc23)CC1 [Example 2, 2-[4-(4-Benzo[d]isothiazol-3-yl-piperazin-1-yl)-butyl]-tetrahydro-pyrrolo[1,2-c]pyrimidine-1,3-dione oxalate] | Active | no change | blocked the effects of apomorphine | no detectable agonist activity | antagonistic activity | 33 nM | No motor incoordination | 0.49 ± 0.08 | 0.6 nM |  |  |
| O=C1C[C@@H]2CCCN2C(=O)N1CCCCN1CCN(c2cccc3sccc23)CC1 [Example 4, 2-[4-(4-Benzo[b]thiophen-4-yl-piperazin-1-yl)-butyl]-tetrahydro-pyrrolo[1,2-c]pyrimidine-1,3-dione oxalate] |  |  |  | no detectable agonist activity | antagonistic activity | 54.4 nM |  | 2.14 ± 0.88 | 4.24 nM |  |  |
| O=C1C[C@@H]2C[C@H](F)CN2C(=O)N1CCCCN1CCN(c2nsc3ccccc23)CC1 [Example 9, 2-[4-(4-Benzo[d]isothiazol-3-yl-piperazin-1-yl)-butyl]-6-fluoro-tetrahydro-pyrrolo[1,2-c]pyrimidine-1,3-dione oxalate] |  |  |  |  |  |  |  | 0.4 ± 0.13 | 2.49 nM |  |  |
| O=C1C[C@@H]2C[C@H]3C[C@H]3N2C(=O)N1CCCCN1CCN(c2nsc3ccccc23)CC1 [Example 11, 3-[4-(4-Benzo[d]isothiazol-3-yl-piperazin-1-yl)-butyl]-hexahydro-1b,3-diaza-cyclopropa[a]indene-2,4-dione oxalate] |  |  |  |  |  |  |  |  |  | 0.09 ± 0.16 | 1.02 nM |
